Counter-ions that a name gives are not always drawn. Like-named read-outs stand apart in the source and are kept apart here.
Legend:
MCL-1 = MCL-1 (Homo sapiens (Human), UniProt Q07820, K194A/K197A/R201A); test: Protein-compound interaction assay (SPR assay, Assay 8); format: binding; conditions: immobilized MBP-MCL-1, 25° C., geometric mean
From the text: Assay 8 Protein-Compound Interaction Assay (SPR Assay)
The ability of the compounds described in this invention to bind to MCL-1 may be determined using surface plasmon resonance (SPR). This allows for the quantification of binding in terms of the equilibrium dissociation constant (KD [M]), as well as association and dissociation rate constants (kon [1/M 1/s] and koff [1/s], respectively). The measurements may be performed using Biacore® T200 or Biacore® S200 instruments (GE Healthcare).
For SPR measurements, recombinant MCL-1 (amino acids 173-321, N-terminal fused to Maltose Binding Protein (MBP) (SEQ ID 1) purchased from Beryllium (Bedford, Mass., USA)) was immobilized using standard amine coupling (Johnsson B et al, Anal Biochem. 1991 Nov. 1; 198(2):268-77). Briefly, carboxymethylated dextran biosensor chips (Series S Sensor Chip CMS, GE Healthcare) were activated with 1-ethyl-3-(3-dimethylaminopropyl)-carbodiimide hydrochloride (EDC) and N-hydroxysuccinimide (NHS) according to the supplier's instructions. MBP-MCL-1 was diluted in 1×PBS-P+ (GE Healthcare) and injected on the activated chip surface. Subsequently, a solution of 1 M ethanolamine-HCl (GE Healthcare) was injected to block unreacted groups, resulting in approximately 400-2500 response units (RU) of immobilized protein. A reference surface was generated by treatment with NHS-EDC and ethanolamine-HCl. […] For SPR binding-measurements, serial dilutions of compound (eight dilution steps, typically ranging from 0.2 nM up to 1 μM) were injected over immobilized protein. […] Compounds were injected for 60 s followed by a dissociation time of up to 1000 s.
The double-referenced sensorgrams were fit to a simple reversible Langmuir 1:1 reaction mechanism as implemented in the Biacore® T200 and S200 evaluation software (T200 evaluation software version 2.0 and S200 evaluation software version 1.0, GE Healthcare).

HMC-1-8 = test: Antiproliferation assay HMC-1-8 (Assay 7); format: cell-based; conditions: 72 h, HMC-1-8 cells, CellTiter-Glo, single determinations, read-out: IC50 Antiproli HMC-1-8
Procedure: Assessment of the Anti-Proliferative Effect of Compounds in Different Cell Lines
The impact of compounds on the proliferation of different cell lines was assessed using the CellTiter-Glo® Luminescent Cell Viability reagent from Promega (G7573).
In parallel, cells were plated in a reference (day 0) plate for time zero determination.
Rim wells were excluded. The cells were incubated for 72 h hours in a humidified incubator at 37° C. The day 0 plate was measured by adding 30 μL/well of CTG solution (CellTiter-Glo® Luminescent Cell Viability reagent, Promega G7573) to time zero wells in the reference plate followed by a 10 minutes incubation and luminescence reading at 0.1 ms. using the PHERAstar FS microplate reader (BMG Labtech).
After 72 h incubation, the treated plates were measured in the same way as the day 0 plate mentioned above.

MCL1 protein = MCL1 protein (Homo sapiens (Human), UniProt Q07820); test: PIxEL: protein-protein interaction in permeabilized cells by ELISA (Assay 5); format: cell-based; conditions: permeabilized RKO cells, biotin-BIM BH3 peptide, median
Procedure: Assay 5 PI×EL: Protein-Protein Interaction in Permeabilized Cells by ELISA
Most MCL1 protein molecules are localized at the mitochondria outer membrane and sequester pro-apoptotic proteins through binding of their BCL2 homology domain 3 (BH3 domain). MEB buffer (150 mM mannitol, 10 mM HEPES pH 7.5, 50 mM KCl, 20 μM EDTA, 20 μM EGTA, 5 mM potassium succinate, 0.1% protease-free BSA (SIGMA) with low dose digitonin (0.002%) permeabilizes plasma membrane while leaves live mitochondria, where MCL1 maintains its native localization and conformation. Unlike biophysical assays (e.g. TR-FRET) that use truncated recombinant MCL1 protein, this assay uses full length endogenous MCL1 protein at mitochondria outer membrane. It measures the interaction between MCL1 protein and biotinylated BIM BH3 peptide. Compounds can compete with BIM BH3 peptide to bind to MCL1 protein. This serum free assay measures the affinity between MCL1 protein and compound in permeabilized cells, therefore it is not affected by serum binding and cell permeability, and can measure the intrinsic compound affinity.
On day 1, RKO colon cancer cell line cells were plated at 0.8 million cells/ml, 100 μl/well in 96-well flat bottom TC plates (Corning). MCL1 antibody (Santa Cruz sc-12756) were diluted at 200 fold (final concentration 1 μg/ml) in carbonate buffer (Thermo Fisher Scientific, pH 9.6), and 50 μl of diluted antibody was added to each well of high bind ELISA plates (SARSTEDT). Each plate was tapped to make sure liquid covering entire bottom of wells and incubate at 37° C. overnight.
On the second day, MCL1 antibody was washed from ELISA plate. 250 μl Odyssey® Blocking Buffer (PBS) (Li-Cor) was added to each well, incubated at room temperature for at least 1 hour, then washed once with 250 μl 1×PBST. Plates with RKO cells were gently washed once with 100 μl/well PBS, once with 100 μl/well MEB buffer without digitonin, then 100 μl of MEB buffer with 0.002% digitonin was gently added to each well. Compounds were added with HP Tecan compound dispenser in 3-fold dilution series, highest dose 30 μM, 10-dose per compound in quadruplicates. Biotin-BIM peptide (synthesized by 21st Century) was added with HP Tecan compound dispenser at 0.2 μM immediately after the addition of compounds. Plates were rocked for 1 hour at room temperature. Then MEB buffer was aspirated and 50 μl of CHAPS buffer (50 mM Tris-Cl, pH 7.4, 150 mM NaCl, 1% CHAPS, 1 mM EDTA, 1 mM EGTA, complete protease inhibitors (Roche), PhosSTOP (Roche)) was added to each well. Plates were rocked for 1 hour at 4° C., then 45 μl cell lysate from each well were transferred to ELISA plates coated with MCL1 antibody. Plates were incubated overnight in the cold room with rocking.
On the third day, ELISA plates were washed once with 250 μl 1×PBST. Streptavidin-poly-HRP (Thermo Fisher Scientific) was diluted to 20 ng/ml in Odyssey blocking buffer plus 0.05% Triton-100, and 100 μl was added to each well of the ELISA plate. Plates were incubated at room temperature for 1 hour with rocking, then washed with 100 μL 1×PBST for 3 times. Each SuperSignal ELISA Femto Maximum Sensitivity substrate was added to a 50-ml tube and mixed, then 100 μl of mixed substrate was added to each well. Plates were shaken for 1 minute then luminescence was measured by Envision plate reader […]. Signal of each well were normalized by no-compound control and no-cell control. IC50 was calculated using Graphic Pad PRISM software.

MCL1 protein, sequence (Q07820 whole entry): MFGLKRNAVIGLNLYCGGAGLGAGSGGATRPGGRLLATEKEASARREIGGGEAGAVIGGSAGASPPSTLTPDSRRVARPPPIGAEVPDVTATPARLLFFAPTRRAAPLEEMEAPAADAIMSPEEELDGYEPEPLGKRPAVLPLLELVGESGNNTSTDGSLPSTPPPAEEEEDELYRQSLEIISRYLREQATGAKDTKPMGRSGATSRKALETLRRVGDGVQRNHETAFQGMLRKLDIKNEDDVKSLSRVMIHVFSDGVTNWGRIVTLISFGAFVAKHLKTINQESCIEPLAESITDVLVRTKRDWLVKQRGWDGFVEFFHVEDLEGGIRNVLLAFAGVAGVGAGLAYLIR
MCL-1, sequence (Q07820 whole entry K194A/K197A/R201A, looked up): as the sequence (Q07820 whole entry) above, with K194A, K197A, R201A counted along it

Question: Which Kd (MCL-1) does the source give for `Cc1c2c(nn1C)COCCCCn1c(C(=O)O)c(CCCOc3cccc4ccccc34)c3ccc(F)c-2c31` (racemic) [Example 2, (rac)-4-fluoro-2,3-dimethyl-7-[3-(naphthalen-1-yloxy)propyl]-2,10,11,12,13,15-hexahydro-pyrazolo[4′,3′:9,10][1,6]oxazacycloundecino[8,7,6-hi]indole-8-carboxylic acid] here?
Answer: 43 nM

Question: And the kon (MCL-1)?
Answer: 230000 M⁻¹ s⁻¹

Question: What about the koff (MCL-1; read-out: koff) of the same compound?
Answer: 0.01 s⁻¹

Question: What about the IC50 (HMC-1-8) of the same compound?
Answer: 10000 nM

Question: What about the IC50 (HMC-1-8; listed as 02) of the same compound?
Answer: 7580 nM

Question: How did the IC50 (MCL1 protein) turn out when `Cc1c2c(nn1C)COCCCCn1c(C(=O)O)c(CCCOc3ccc(F)c4ccccc34)c3ccc(F)c-2c31` (racemic) [Example 15, (rac)-13-fluoro-1-(3-((4-fluoronaphthalen-1-yl)oxy)propyl)-11,12-dimethyl-4,5,6,7,9,11-hexahydropyrazolo[4′,3′:9,10][1]oxa[6]azacycloundecino[8,7,6-hi]indole-2-carboxylic acid] was run?
Answer: 4160 nM

Question: With `CCc1nn(C)c2c1-c1c(F)ccc3c(CCCOc4cccc5ccccc45)c(C(=O)O)n(c13)CCCCOC2` (racemic) [Example 37, (rac)-12-ethyl-13-fluoro-10-methyl-1-(3-(naphthalen-1-yloxy)propyl)-4,5,6,7,9,10-hexahydro-pyrazolo[4′,3′:9,10][1]oxa[6]azacycloundecino[8,7,6-hi]indole-2-carboxylic acid] as the compound, how does the IC50 (MCL1 protein) read?
Answer: 7350 nM

Question: What does the source list for `Cc1c2c(nn1C)COCCCCn1c(C(=O)O)c(CCCOc3cccc4ccccc34)c3ccc(F)c-2c31` (single isomer, unassigned; enantiomer 1) [Example 3, 4-fluoro-2,3-dimethyl-7-[3-(naphthalen-1-yloxy)propyl]-2,10,11,12,13,15-hexahydropyrazolo-[4′,3′:9,10][1,6]oxazacycloundecino[8,7,6-hi]indole-8-carboxylic acid-N-ethylethanamine salt (enantiomer 1)]?
Answer: IC50 (MCL1 protein): 1400 nM; Kd (MCL-1): 4.2 nM; kon (MCL-1): 4.6e+06 M⁻¹ s⁻¹; koff (MCL-1; read-out: koff): 0.019 s⁻¹; IC50 (HMC-1-8): 6110 nM

Question: Which results are given for `CCc1c2c(nn1C)COCCCCn1c(C(=O)O)c(CCCOc3cccc4ccccc34)c3ccc(F)c-2c31` (single isomer, unassigned; enantiomer 1) [Example 7, 3-ethyl-4-fluoro-2-methyl-7-{3-[(naphthalen-1-yl)oxy]propyl}-2,10,11,12,13,15-hexahydro-pyrazolo[4′,3′:9,10][1,6]oxazacycloundecino[8,7,6-hi]indole-8-carboxylic acid-N-ethylethanamine salt (enantiomer 1)]?
Answer: IC50 (MCL1 protein): 2060 nM; Kd (MCL-1): 2.3 nM; kon (MCL-1): 6e+06 M⁻¹ s⁻¹; koff (MCL-1; read-out: koff): 0.014 s⁻¹

Question: What does the source list for `Cc1c2c(nn1C)COCCCCn1c(C(=O)O)c(CCCOc3cccc4cc(F)ccc34)c3ccc(F)c-2c31` (single isomer, unassigned; enantiomer 1) [Example 13, 4-fluoro-7-{3-[(6-fluoronaphthalen-1-yl)oxy]propyl}-2,3-dimethyl-2,10,11,12,13,15-hexahydro-pyrazolo[4′,3′:9,10][1,6]oxazacycloundecino[8,7,6-hi]indole-8-carboxylic acid-N-ethylethanamine salt (enantiomer 1)]?
Answer: IC50 (MCL1 protein): 872 nM; Kd (MCL-1): 0.69 nM; kon (MCL-1): 1.1e+07 M⁻¹ s⁻¹; koff (MCL-1; read-out: koff): 0.0077 s⁻¹

Question: Which IC50 (MCL1 protein) does the source give for `Cc1c2c(nn1C)COCCCCn1c(C(=O)O)c(CCCOc3ccc(F)c4ccccc34)c3ccc(F)c-2c31` (single isomer, unassigned; enantiomer 1) [Example 16, 4-fluoro-7-{3-[(4-fluoronaphthalen-1-yl)oxy]propyl}-2,3-dimethyl-2,10,11,12,13,15-hexahydro-pyrazolo[4′,3′:9,10][1,6]oxazacycloundecino[8,7,6-hi]indole-8-carboxylic acid (enantiomer 1)] here?
Answer: 32300 nM

Question: For `CCc1c2c(nn1C)COCCCCn1c(C(=O)O)c(CCCOc3ccc(F)c4ccccc34)c3ccc(F)c-2c31` (single isomer, unassigned; enantiomer 1) [Example 27, 3-ethyl-4-fluoro-7-{3-[(4-fluoronaphthalen-1-yl)oxy]propyl}-2-methyl-2,10,11,12,13,15-hexahydropyrazolo[4′,3′:9,10][1,6]oxazacycloundecino[8,7,6-hi]indole-8-carboxylic acid-N-ethylethanamine salt (enantiomer 1)], which IC50 (MCL1 protein) is on record?
Answer: 2430 nM

Question: `CCc1nn(C)c2c1-c1c(F)ccc3c(CCCOc4ccc(F)c5ccccc45)c(C(=O)O)n(c13)CCCCOC2` (single isomer, unassigned; enantiomer 1) [Example 42, 3-ethyl-4-fluoro-7-{3-[(4-fluoronaphthalen-1-yl)oxy]propyl}-1-methyl-1,10,11,12,13,15-hexahydropyrazolo[4′,3′:9,10][1,6]oxazacycloundecino[8,7,6-hi]indole-8-carboxylic acid (enantiomer 1)] was tested. Which IC50 (MCL1 protein) did it give?
Answer: 8910 nM

Question: Which results are given for `CCc1c2c(nn1C)COCCCCn1c(C(=O)O)c(CCCOc3cccc4cc(F)ccc34)c3ccc(F)c-2c31` (single isomer, unassigned; enantiomer 2) [Example 23, 3-ethyl-4-fluoro-7-{3-[(6-fluoronaphthalen-1-yl)oxy]propyl}-2-methyl-2,10,11,12,13,15-hexahydropyrazolo[4′,3′:9,10][1,6]oxazacycloundecino[8,7,6-hi]indole-8-carboxylic acid-N-ethylethanamine salt (enantiomer 2)]?
Answer: IC50 (MCL1 protein): 15100 nM; Kd (MCL-1): 27 nM; koff (MCL-1): 0.0026 s⁻¹; kon [1/M 1/s] (MCL-1): 9.7E4 1/M 1/s

From patent US11286263B2, “Macrocyclic fluorine substituted indole derivatives” (The Broad Institute, Inc., priority 2017, dated 2022)
